Experimental findings from ChEMBL document CHEMBL5214910, “Rational Design of Dipicolylamine-Containing Carbazole Amphiphiles Combined with Zn2+ as Potent Broad-Spectrum Antibacterial Agents with a Membrane-Disruptive Mechanism” (J Med Chem, 2021) are described below.

In brackets after ≈: the same amount, converted by molar mass.

The subject of data set [1] is Staphylococcus aureus. The experiment in a line: Induction of drug resistance in Staphylococcus aureus ATCC 29213 assessed as fold change in MIC incubated for 17 days. Format: functional. To be noted: time 17.0 day.
Data set [2] deals with Escherichia coli. The experiment in a line: Induction of drug resistance in Escherichia coli ATCC 25922 assessed as fold change in MIC incubated for 15 days. Format: functional. To be noted: time 15.0 day.
Data set [3] has as its system Acinetobacter baumannii. The experiment in a line: Antibacterial activity against Acinetobacter baumannii ATCC 17978 assessed as inhIbition of bacterial growth incubated for 24 hrs by Muller hinton broth based dilution assay. Type of data set: functional.
The test system of data set [4] is Staphylococcus aureus. The experiment in a line: Antibacterial activity against Staphylococcus aureus ATCC 29213 assessed as inhibition of bacterial growth incubated for 24 hrs by Muller hinton broth based dilution assay. Type of data set: functional.
Data set [5] deals with Staphylococcus aureus. The experiment in a line: Antibacterial activity against Methicillin-resistant Staphylococcus aureus N315 assessed as inhibition of bacterial growth incubated for 24 hrs by Muller hinton broth based dilution assay. Type of data set: functional.
The test system of data set [6] is Staphylococcus aureus. Description: Antibacterial activity against Methicillin-resistant Staphylococcus aureus NCTC10442 assessed as inhibition of bacterial growth incubated for 24 hrs by Muller hinton broth based dilution assay. Format: functional.
In data set [7] the test system is Escherichia coli. The experiment in a line: Antibacterial activity Escherichia coli ATCC 25922 assessed as inhibition of bacterial growth incubated for 24 hrs by Muller hinton broth based dilution assay. Type of data set: functional.
For data set [8], the system named is Pseudomonas aeruginosa. Description: Antibacterial activity Pseudomonas aeruginosa ATCC 9027 assessed as inhibition of bacterial growth incubated for 24 hrs by Muller hinton broth based dilution assay. Format: functional.
Data set [9] deals with Acinetobacter baumannii. Description: Antibacterial activity against Acinetobacter baumannii R2889 assessed as inhIbition of bacterial growth incubated for 24 hrs by Muller hinton broth based dilution assay. Type of data set: functional.
A short description of data set [10]: Hemolytic activity in rabbit RBC incubated for 1 hrs by fluorescence based microplate reader assay. Type of data set: toxicity, cell-based, Oryctolagus cuniculus, Erythrocyte. The note with it: rabbit red blood cells (erythrocytes).
Data set [11] has as its system Staphylococcus aureus. Description: Antibacterial activity against Staphylococcus aureus ATCC 29213 assessed as inhibition of bacterial growth incubated for 24 hrs in the presence of 12.5 ug/mL Zn2+ by Muller hinton broth based dilution assay. Type of data set: functional.
The subject of data set [12] is Staphylococcus aureus. The experiment in a line: Antibacterial activity against Methicillin-resistant Staphylococcus aureus N315 assessed as inhibition of bacterial growth incubated for 24 hrs in the presence of 12.5 ug/mL Zn2+ by Muller hinton broth based dilution assay. Format: functional.
Data set [13] concerns Staphylococcus aureus. The experiment in a line: Antibacterial activity against Methicillin-resistant Staphylococcus aureus NCTC10442 assessed as inhibition of bacterial growth incubated for 24 hrs in the presence of 12.5 ug/mL Zn2+ by Muller hinton broth based dilution assay. Type of data set: functional.
Data set [14] relates to Escherichia coli. The experiment in a line: Antibacterial activity Escherichia coli ATCC 25922 assessed as inhibition of bacterial growth incubated for 24 hrs in the presence of 12.5 ug/mL Zn2+ by Muller hinton broth based dilution assay. Format: functional.
Data set [15] has as its system Pseudomonas aeruginosa. The experiment in a line: Antibacterial activity Pseudomonas aeruginosa ATCC 9027 assessed as inhibition of bacterial growth incubated for 24 hrs in the presence of 12.5 ug/mL Zn2+ by Muller hinton broth based dilution assay. Format: functional.
For data set [16], the system named is Acinetobacter baumannii. The experiment in a line: Antibacterial activity against Acinetobacter baumannii ATCC 17978 assessed as inhIbition of bacterial growth incubated for 24 hrs in the presence of 12.5 ug/mL Zn2+ by Muller hinton broth based dilution assay. Type of data set: functional.
The subject of data set [17] is Acinetobacter baumannii. The experiment in a line: Antibacterial activity against Acinetobacter baumannii R2889 assessed as inhIbition of bacterial growth incubated for 24 hrs in the presence of 12.5 ug/mL Zn2+ by Muller hinton broth based dilution assay. Format: functional.
Data set [18] can be described thus: Hemolytic activity in rabbit RBC incubated for 1 hrs in the presence of 12.5 ug/mL Zn2+ by fluorescence based microplate reader assay. Format: toxicity, cell-based, Oryctolagus cuniculus, Erythrocyte. The note with it: rabbit red blood cells (erythrocytes).
The test system of data set [19] is Pseudomonas aeruginosa. The experiment in a line: Antibacterial activity against Pseudomonas aeruginosa ATCC 9027 in C57BL/6 mouse model of bacterial keratitis assessed as log reduction in viable bacterial count in infected cornea at 0.3 % pre-infected with bacteria for 24 hrs followed by topical administration of compound four times a day for 3 days. To be noted: route top, time 3 day. Type of data set: functional.

Data set [20] deals with Staphylococcus aureus. Description: Antibacterial activity against Staphylococcus aureus ATCC 29213 in cyclophosphamide immunosuppressed C57BL/6 mouse model of bacterial keratitis assessed as log reduction in viable bacterial count in infected cornea at 5 % pre-infected with bacteria for 24 hrs followed by topical administration of compound four times a day for 3 days. Type of data set: functional. To be noted: route top, time 3 day.

Usually MIC stands for the least concentration at which growth counts as inhibited. What is called HC50 is the concentration giving 50% haemolysis.

As to `CCn1cc(C(=O)O)c(=O)c2cc(F)c(N3CCNCC3)cc21`, the fold change (FC) in the data set with Staphylococcus aureus [1] was 32.
Turning to `CC1(C)S[C@@H]2[C@H](NC(=O)[C@H](N)c3ccc(O)cc3)C(=O)N2[C@H]1C(=O)O`, the fold change (FC) in the data set with Escherichia coli [2] was found to be 16.
In the case of `CCCCCCCCCn1c2ccccc2c2c(OCC(O)CN(Cc3ccccn3)Cc3ccccn3)cccc21` (configuration not stated), the minimal inhibitory concentration (MIC) in the data set with Acinetobacter baumannii [3] was over 50 µg/mL; in the data set with Staphylococcus aureus [4] it was 3.12 µg/mL (≈ 5.53 µM); with Staphylococcus aureus [5] it was 0.78 µg/mL (≈ 1.38 µM); in the data set on Staphylococcus aureus [6], 6.25 µg/mL (≈ 11.1 µM); in the data set on Escherichia coli [7] it was over 50 µg/mL; in the data set on Pseudomonas aeruginosa [8], over 50 µg/mL. In addition, the MIC with Acinetobacter baumannii [9] is over 50 µg/mL; in the data set on Staphylococcus aureus [11] it was 3.12 µg/mL; in the data set with Staphylococcus aureus [12], 0.78 µg/mL; with Staphylococcus aureus [13], 6.25 µg/mL; in the data set on Escherichia coli [14], over 50 µg/mL; in the data set on Pseudomonas aeruginosa [15], over 50 µg/mL. Further, the results for the MIC in the data set with Acinetobacter baumannii [16] and in the data set with Acinetobacter baumannii [17] were 12.5 µg/mL and over 50 µg/mL, respectively. Also, the concentration for 50% haemolysis (HC50) at 1 h in [10] and in [18] was over 200 µg/mL throughout.
With `CCCCCCCn1c2ccccc2c2c(OCC(O)CN(Cc3ccccn3)Cc3ccccn3)cccc21` (configuration not stated), the minimum inhibitory concentration (MIC) is over 50 µg/mL with Acinetobacter baumannii [3]; 1.56 µg/mL (≈ 2.91 µM) in the data set with Staphylococcus aureus [4]; 1.56 µg/mL (≈ 2.91 µM) in the data set with Staphylococcus aureus [5]; 1.56 µg/mL (≈ 2.91 µM) in the data set with Staphylococcus aureus [6]; over 50 µg/mL in the data set with Escherichia coli [7]; over 50 µg/mL with Pseudomonas aeruginosa [8]. Further, the MIC in the data set with Acinetobacter baumannii [9] was 25 µg/mL (≈ 46.6 µM); with Staphylococcus aureus [11] it was 1.56 µg/mL; in the data set with Staphylococcus aureus [12] it was 0.78 µg/mL; in the data set with Staphylococcus aureus [13], 1.56 µg/mL; in the data set with Escherichia coli [14], 3.12 µg/mL; in the data set with Pseudomonas aeruginosa [15] it was over 50 µg/mL. Further, the MIC in the data set with Acinetobacter baumannii [16] is over 50 µg/mL; with Acinetobacter baumannii [17], 25 µg/mL. Further, the 50% haemolytic concentration (HC50) at 1 h in data set [10] and in [18] was over 200 µg/mL in each case.
Take `COc1c(N2CCNC(C)C2)c(F)cc2c(=O)c(C(=O)O)cn(C3CC3)c12` (configuration not stated) [GATIFLOXACIN]: the “log(activity)” value in the data set with Pseudomonas aeruginosa [19] stood at 3.03.
Turning to `OC(COc1cccc2c1c1ccccc1n2CCCC(F)(F)F)CN(Cc1ccccn1)Cc1ccccn1` (configuration not stated), the MIC with Acinetobacter baumannii [3] was 6.25 µg/mL (≈ 11.4 µM); with Staphylococcus aureus [4], 3.12 µg/mL (≈ 5.7 µM); in the data set on Staphylococcus aureus [5] it was 3.12 µg/mL (≈ 5.7 µM); in the data set on Staphylococcus aureus [6] it was 1.56 µg/mL (≈ 2.84 µM); in the data set on Escherichia coli [7] it was 12.5 µg/mL (≈ 22.8 µM); in the data set on Pseudomonas aeruginosa [8], over 50 µg/mL. Further, the MIC is 6.25 µg/mL (≈ 11.4 µM) in the data set with Acinetobacter baumannii [9]; 1.56 µg/mL in the data set with Staphylococcus aureus [11]; 1.56 µg/mL in the data set on Staphylococcus aureus [12]; 0.78 µg/mL in the data set on Staphylococcus aureus [13]; 3.12 µg/mL with Escherichia coli [14]; 12.5 µg/mL with Pseudomonas aeruginosa [15]. For the same compound, the MIC in the data set on Acinetobacter baumannii [16] and with Acinetobacter baumannii [17] was 3.12 µg/mL each time. For the same compound, the HC50 at 1 h in data set [10] and in [18] was over 200 µg/mL each time.
Regarding `CN[C@H](CC(C)C)C(=O)N[C@H]1C(=O)N[C@@H](CC(N)=O)C(=O)N[C@H]2C(=O)N[C@H]3C(=O)N[C@H](C(=O)N[C@H](C(=O)O)c4cc(O)cc(O)c4-c4cc3ccc4O)[C@H](O)c3ccc(c(Cl)c3)Oc3cc2cc(c3O[C@@H]2O[C@H](CO)[C@@H](O)[C@H](O)[C@H]2O[C@H]2C[C@](C)(N)[C@H](O)[C@H](C)O2)Oc2ccc(cc2Cl)[C@H]1O` [VANCOMYCIN], the MIC is 50 µg/mL (≈ 34.5 µM) with Acinetobacter baumannii [3]; 0.78 µg/mL (≈ 0.538 µM) with Staphylococcus aureus [4]; 1.56 µg/mL (≈ 1.08 µM) with Staphylococcus aureus [5]; 1.56 µg/mL (≈ 1.08 µM) in the data set with Staphylococcus aureus [6]; over 50 µg/mL in the data set with Escherichia coli [7]; over 50 µg/mL in the data set with Pseudomonas aeruginosa [8]. Further, the minimum inhibitory concentration (MIC) with Acinetobacter baumannii [9] is over 50 µg/mL; in the data set with Staphylococcus aureus [11], 0.78 µg/mL; in the data set with Staphylococcus aureus [12], 1.56 µg/mL; in the data set on Staphylococcus aureus [13], 1.56 µg/mL; with Escherichia coli [14], over 50 µg/mL; in the data set on Pseudomonas aeruginosa [15] it was over 50 µg/mL. The MIC in the data set with Acinetobacter baumannii [16] is 50 µg/mL; with Acinetobacter baumannii [17], over 50 µg/mL. For the same compound, the “log(activity)” value in the data set on Staphylococcus aureus [20] worked out at 5.4.
Regarding `Cn1c2ccccc2c2c(OCC(O)CN(Cc3ccccn3)Cc3ccccn3)cccc21` (configuration not stated), the minimum inhibitory concentration (MIC) was 12.5 µg/mL (≈ 27.6 µM) with Acinetobacter baumannii [3]; 12.5 µg/mL (≈ 27.6 µM) in the data set with Staphylococcus aureus [4]; 6.25 µg/mL (≈ 13.8 µM) with Staphylococcus aureus [5]; 12.5 µg/mL (≈ 27.6 µM) with Staphylococcus aureus [6]; 50 µg/mL (≈ 110 µM) with Escherichia coli [7]; over 50 µg/mL with Pseudomonas aeruginosa [8]. The minimal inhibitory concentration (MIC) with Acinetobacter baumannii [9] turned out to be 25 µg/mL (≈ 55.2 µM); with Staphylococcus aureus [11], 3.12 µg/mL; in the data set with Staphylococcus aureus [12] it was 1.56 µg/mL; in the data set with Staphylococcus aureus [13] it was 6.25 µg/mL; in the data set on Escherichia coli [14] it was 50 µg/mL; in the data set on Pseudomonas aeruginosa [15] it was 12.5 µg/mL. For the same compound, the MIC in the data set with Acinetobacter baumannii [16] was 12.5 µg/mL; in the data set on Acinetobacter baumannii [17] it was 25 µg/mL. Further, the HC50 at 1 h in [10] and in [18] was over 200 µg/mL throughout.
